Measured values as given in patent US20230190787A1, “SYSTEM AND METHOD FOR TREATING CARDIAC TOXICITY VIA GUT MICROBIOTA” (priority 2022, published 2023).

Experiments:
Type in all cases: in vivo, Wistar albino rats
[1] = tested on: heart; experiment: Histopathological analysis of heart (H&E); conditions: DC group: Dox 1 mg/kg i.p., normal drinking water
Method: (§1) All the animals are randomly divided into 4 groups with six animals in each: 1) Normal control (NC), fed with standard semi purified diet along with normal drinking water, 2) Zam control (ZC) fed with standard semi purified diet along with Zam water p.o at libitum, 3) Doxorubicin or Dox control (DC), animals are injected with Dox (1 mg/kg bw) i.p. on first day of protocol fed with standard semi purified diet along with normal drinking water and 4) Dox+Zam (DZ) group injected with Dox (1 mg/kg bw) i.p. on first day of protocol, and treated with Zam water p.o at libitum, for 28 days. All the animals are on semi purified diet throughout the study period. Body weight of rats are recorded weekly and consumption of food and water is measured daily basis.
(§2) Physiological and behavioural changes are monitored in experimental rats for entire period of protocol. The protocol is terminated on 29th day, animals are sedated with diethyl ether for further process of organ harvesting and blood collection. Abdominal artery, punctured and blood is collected in centrifugal tubes approximately 3 ml/100 g body weight, allowed to clot at laboratory temperature for 30 minutes, centrifuged at 4° C. for 15 minutes at 4500 rpm. The supernatant serum, transferred to 1.5 ml tubes and kept at −80° C. for further analysis. […]

[2] = tested on: kidneys; experiment: Histopathological analysis of kidney (H&E); conditions: DC group: Dox 1 mg/kg i.p., normal drinking water
Method: as §1, §2

[3] = tested on: Gut microbiota; experiment: Gut microbiota analysis: 16S metagenomic analysis of stool DNA; conditions: DC group: Dox 1 mg/kg i.p., normal drinking water
Method: All the animals are randomly divided into 4 groups with six animals in each: 1) Normal control (NC), fed with standard semi purified diet along with normal drinking water, 2) Zam control (ZC) fed with standard semi purified diet along with Zam water p.o at libitum, 3) Doxorubicin or Dox control (DC), animals are injected with Dox (1 mg/kg bw) i.p. on first day of protocol fed with standard semi purified diet along with normal drinking water and 4) Dox+Zam (DZ) group injected with Dox (1 mg/kg bw) i.p. on first day of protocol, and treated with Zam water p.o at libitum, for 28 days. All the animals are on semi purified diet throughout the study period. Body weight of rats are recorded weekly and consumption of food and water is measured daily basis. Stool samples of rats are used to isolate the DNA by […] kit as per manufacturer's instructions. Briefly 250-300 mg of stool samples collected from lower intestine, in 2 ml tube weighted and thawed on ice. ASL buffer (1.5 ml) is added, vortexed for 3 minutes followed by incubation at 80° C. for 15 minutes. The incubated tubes are tapped every four minute and centrifuge at 14000 rpm for 15 minutes at room temperature. EX tablet is added to 1.5-2.0 ml of supernatant, followed by centrifugation for 5 minutes at 15000 rpm. The procedure continued with the addition of proteinase K (15 μl) and AL buffer, incubated for 10 minutes at 70° C. Approximately 300 μl of absolute alcohol or ethanol is added, centrifuged for 1 minute at 12000 rpm with addition of 500 μl of AW1 buffer to column above and centrifuge at 14000 rpm for 1 minute. The filtrate in collection tube is discarded, finally DNA is eluted and is evaluated on 1% agarose gel. The isolated sample of DNA is forwarded for 16S metagenomic analysis.

[4] = tested on: Dox induced cardiac toxicity/remodeling; experiment: Blood analysis: serum biochemical levels (auto analyzer/ELISA kits) in doxorubicin induced cardiac toxicity/remodelling rats
Text: Zinc Quantification, rat high sensitivity C-Reactive Protein, Fibrinogen invitro, IL-6, IL-10, Renin, Ang II, and CKMB Enzyme linked Immunosorbent Assay (ELISA) rat kits are procured from Abcam, Cambridge, United Kingdom.
Sufficient experimental animals Wistar albino rats approximately average weight of 170±20 g are obtained. The protocol is approved by Institutional Animal Ethical Committee, all animals are acclimatized for 7 days standard laboratory condition of 12-hr light/dark cycle, maintained at temperature of 22±2° C. with relative humidity of 50±5% in department of Biochemistry, Faculty of Science.
as §1
Physiological and behavioural changes are monitored in experimental rats for entire period of protocol. The protocol is terminated on 29th day, animals are sedated with diethyl ether for further process of organ harvesting and blood collection. Abdominal artery, punctured and blood is collected in centrifugal tubes approximately 3 ml/100 g body weight, allowed to clot at laboratory temperature for 30 minutes, centrifuged at 4° C. for 15 minutes at 4500 rpm. The supernatant serum, transferred to 1.5 ml tubes and kept at −80° C. for further analysis. Harvested heart and kidneys are weight, preserved in 10% phosphate buffered formaldehyde for histopathological analysis.
The serum biochemical levels of Zinc, Fibrinogen, Renin, IL-10,11-6, CRP, Ang II, and CKMB are analyzed by standard auto analyzer kits-Zinc quantification kit, Rat Fibrinogen ELISA kit, Rat Renin ELISA kit, IL-10 ELISA kit, I1-6 ELISA kit, CRP ELISA kit, Ang II ELISA kit, and CKMB ELISA kit from Abcam Cambridge, United Kingdom.

[5] = DC group: Dox 1 mg/kg i.p., normal drinking water

With `COc1cccc2c1C(=O)c1c(O)c3c(c(O)c1C2=O)C[C@@](O)(C(=O)CO)C[C@@H]3O[C@H]1C[C@H](N)[C@H](O)[C@H](C)O1` [Doxorubicin] the “histopathological evaluation of cardiac tissue” value [1] was “focal areas of myocardial cell degeneration with increased intracellular spaces, high fat deposits, inflammatory cell infiltration and disrupted tissue orientation”, the histopathology of kidneys [2] was “severe pathological lesions with tubular degeneration, tubular cast and tubular necrosis with eosinophilic infiltration” and the Firmicutes population [3] was 33%. The “abundance of Bacteroidetes” value [3] was 34%, the “abundance of Muribaculaceae” value [3] was 26% and the “abundance of Proteobacteria” value [3] was 17%. The “abundance of Romboutsia” value [3] was 2%, the “Plasma CRP level” value ([4]; DC group: Dox 1 mg/kg bw i.p. day 1, normal drinking water) was 13.40 ± 2.66 mg/dL and the “serum Zinc level” value ([4]; DC group: Dox 1 mg/kg bw i.p. day 1, normal drinking water, day 29) was 0.55 ± 0.12 µg/mL. For the same compound, the “Ang II level” value [4, 5] was 16.00 ± 2.26 nmol/mL/min, the CKMB level [4, 5] was 121.8±3.12 U/L and the Fibrinogen concentration [4, 5] was 4.37±0.74. The IL-6 [4, 5] was 3.36±1.32, the plasma renin level [4, 5] was 1.02 ± 0.38 ng/mL/h and the IL-10 ([4]; DC group: Dox single dose 1 mg/kg body weight) was 3.73 ± 0.50 pg/mL.
